In patent publication US20170020867A1 (priority 2015, published 2017):
Entries after “also recorded” stand apart in the source; their conditions may differ.

Tests used:
[1] = test system: human cord blood mast cells; details: cited from earlier work
[2] = test system: patients with moderate to severe active Crohn's disease; assay: Phase IIa clinical trial: corticosteroids decrease; type: in vivo, human; details: among patients who maintained corticosteroids during the study
From the text: Fifteen patients were on corticosteroids prior to study entry.

[3] = test system: patients with moderate to severe active Crohn's disease; assay: Phase IIa clinical trial: Crohn's Disease Activity Index (CDAI)
[4] = test system: patients with moderate to severe active Crohn's disease; assay: Phase IIa clinical trial: safety
[5] = test system: patients with moderate to severe active Crohn's disease; details: human, in vivo
[6] = test system: C Reactive Protein (CRP) level; assay: Phase IIa clinical trial: C Reactive Protein (CRP) level; type: in vivo, human
[7] = week 4, Observed Cases, ITT population
[8] = week 8, Observed Cases, ITT population
[9] = week 8, Observed Cases, ITT population, listed as masitinib
[10] = week 8, patients with CDAI >350 at baseline, ITT population
[11] = week 8, patients with CDAI >350 at baseline, ITT population, listed as masitinib
[12] = week 8, OC dataset, ITT population, All

Cc1ccc(NC(=O)c2ccc(CN3CCN(C)CC3)cc2)cc1Nc1nc(-c2cccnc2)cs1 [Masitinib, 4-(4-methylpiperazin-1-ylmethyl)-N-[4-methyl-3-(4-pyridin-3ylthiazol-2-ylamino)phenyl]benzamide]
FcεRI-mediated degranulation [1]: inhibition of FcεRI-mediated degranulation | patients whose corticosteroid dose was decreased during study [2]: 50% | mean CDAI decrease ([3]; 4 weeks after the initiation of treatment): 80 units | additional remission, number of patients ([3]; after the first 8-week period): one | Complete remission, number of patients ([3]; during the first 8-week period): two | Complete remission, patients ([3]; patient presenting with CDAI>350 at baseline): 10% | CDAI enhanced response (at least 100 pts decrease), patients ([3]; week 4, LOCF, ITT population): 5 (31.3%) | CDAI response (at least 70 pts decrease), patients ([3]; week 4, LOCF, ITT population): 8 (50.0%) | CDAI enhanced response (at least 100 pts decrease), patients [3, 7]: 5 (31.3%) | CDAI response (at least 70 pts decrease), patients [3, 7]: 8 (50.0%) | CDAI response (at least 70 pts decrease), patients ([3]; week 4, Observed Cases, ITT population, listed as masitinib): 50% | CDAI enhanced response (at least 100 pts decrease), patients ([3]; week 8, LOCF, ITT population): 5 (31.3%) | CDAI response (at least 70 pts decrease), patients ([3]; week 8, LOCF, ITT population): 7 (43.8%) | Mean CDAI absolute change from baseline (SD) ([3]; week 8, LOCF, ITT population): −59.9 (112.2) | Median CDAI absolute change from baseline ([3]; week 8, LOCF, ITT population): −64.5 | Mean CDAI absolute change from baseline (SD) ([3]; week 8, OC, ITT population): −86.0 (128.9) | Median CDAI absolute change from baseline ([3]; week 8, OC, ITT population): −101.0 | Mean CDAI absolute change from baseline (SD) ([3]; week 8, OC, ITT population, listed as masitinib): −86 | CDAI enhanced response (at least 100 pts decrease), patients ([3]; week 8, OC, ITT, L1): (100.0%) | Mean CDAI absolute change from baseline ([3]; week 8, OC, ITT, L1): −153.0 | Median CDAI absolute change from baseline ([3]; week 8, OC, ITT, L1): −153.0 | CDAI enhanced response (at least 100 pts decrease), patients ([3]; week 8, OC, ITT, L1, listed as masitinib): 100% | CDAI enhanced response (at least 100 pts decrease), patients ([3]; week 8, OC, ITT, L2): (0.0%) | Mean CDAI absolute change from baseline ([3]; week 8, OC, ITT, L2): −50.0 | Median CDAI absolute change from baseline ([3]; week 8, OC, ITT, L2): −50.0 | CDAI enhanced response (at least 100 pts decrease), patients ([3]; week 8, OC, ITT, L3): (57.1%) | Mean CDAI absolute change from baseline ([3]; week 8, OC, ITT, L3): −86.7 | Median CDAI absolute change from baseline ([3]; week 8, OC, ITT, L3): −103.0 | CDAI enhanced response (at least 100 pts decrease), patients ([3]; week 8, OC, ITT, L3, listed as masitinib): 57% | CDAI response (at least 70 pts decrease), patients ([3]; week 8, OC, ITT, patients naive or previously treated with corticosteroids (L1)): (100.0%) | CDAI response (at least 70 pts decrease), patients ([3]; week 8, OC, ITT, patients previously treated with azathioprine (Immurel) or immunotherapy (L2)): (50.0%) | CDAI response (at least 70 pts decrease), patients ([3]; week 8, OC, ITT, patients previously treated with biological agent (L3)): (71.4%) | CDAI response (at least 70 pts decrease), patients ([3]; week 8, OC, ITT, patients previously treated with biological agent (L3), listed as masitinib): 71% | CDAI enhanced response (at least 100 pts decrease), patients [3, 8]: 5 (50.0%) | CDAI response (at least 70 pts decrease), patients [3, 8]: 7 (70.0%) | improvement of mean disease activity [3, 8]: 23% | CDAI enhanced response (at least 100 pts decrease), patients [3, 9]: 50% | CDAI response (at least 70 pts decrease), patients [3, 9]: 70% | CDAI absolute change from baseline Mean (SD) [3, 10]: −152.3 (78.5) | CDAI absolute change from baseline, Median [3, 10]: −116.5 | CDAI enhanced response (at least 100 pts decrease), patients [3, 10]: 4 (66.7%) | CDAI response (at least 70 pts decrease), patients [3, 10]: 6 (100.0%) | CDAI enhanced response (at least 100 pts decrease), patients [3, 11]: 67% | CDAI response (at least 70 pts decrease), patients [3, 11]: 100% | tolerability ([4]; 8 weeks of observation, 4.5 or 6 mg/kg/day oral in two daily intakes): well tolerated; also recorded: well-tolerated | patients who experienced at least one adverse event (AE) ([4]; during the treatment): 94% | adverse event abdominal pain, patients ([4]; human, in vivo): 22% | adverse event asthenia, patients ([4]; human, in vivo): 33% | adverse event nausea, patients ([4]; human, in vivo): 28% | adverse event vomiting, patients ([4]; human, in vivo): 33% | death [5]: no death | patients with a serious adverse event ([5]; 8 weeks): 44% | CRP level change from baseline ([6]; patients previously treated with anti-TNF): −30% | CRP absolute change, Median [6, 12]: -19.0 mg/L | CRP mean absolute change ± SD [6, 12]: -19.7 ± 21.8 mg/L
